# Results from ChEMBL document CHEMBL5143688, “A kind of HIV-1 protease inhibitors containing phenols with antiviral activity against DRV-resistant variants” (Bioorg Med Chem, 2022).
# How the values were obtained:
# [1] = test system: HIV1 protease; assay: Selectivity index, ratio of CC50 for HEK293T cells to IC50 for inhibition of HIV1 protease expressed in Escherichia coli; assay type: toxicity; conditions: human, read-out: Ratio CC50/IC50
# [2] = Cytotoxicity against HEK293T cells assessed as reduction in cell viability measured after 24 hrs by CCK8 assay; assay type: toxicity, cell-based, HEK-293T; conditions: human
# [3] = target: Human immunodeficiency virus type 1 protease (Human immunodeficiency virus 1, UniProt Q72874); assay: Inhibition of HIV1 protease expressed in Escherichia coli using Arg-Glu (EDANS)-Ser-Gln-Asn-Tyr-Pro-Ile-Val-Gln-Lys(DABCYL)-Arg as substrate preincubated for 20 to 30 mins followed by substrate addition and measured for 10 mins by FRET assay
# [4] = test system: Human immunodeficiency virus 1; assay: Antiviral activity against HIV1 NL4-3 VSV-G pseudotyped virus infected in human SUP-T1 cells assessed as inhibition of late stage viral production at 10 uM pretreated for 48 hrs followed by viral infection and measured after 48 hrs by luciferase assay relative to control; assay type: functional; conditions: Human immunodeficiency virus 1, NL4-3, SUP-T1, time 96 hrs
# [5] = test system: Human immunodeficiency virus 1; assay: Antiviral activity against DRV-resistant HIV1 NL4-3 VSV-G pseudotyped virus infected in human SUP-T1 cells assessed as inhibition of late stage viral production pretreated for 48 hrs followed by viral infection and measured after 48 hrs by luciferase assay; assay type: functional, organism-based; conditions: Human immunodeficiency virus 1, NL4-3, SUP-T1
# [6] = Selectivity ratio of EC50 for antiviral activity against DRV-resistant HIV1 NL4-3 VSV-G pseudotyped virus infected in human SUP-T1 cells to EC50 for antiviral activity against wild-type HIV1 NL4-3 VSV-G pseudotyped virus infected in human SUP-T1 cells; assay type: functional, Human immunodeficiency virus 1
# [7] = test system: Human immunodeficiency virus 1; assay: Antiviral activity against HIV1 NL4-3 VSV-G pseudotyped virus infected in human SUP-T1 cells assessed as inhibition of early stage viral production at 10 uM measured after 48 hrs by luciferase assay relative to control; assay type: functional; conditions: Human immunodeficiency virus 1, NL4-3, SUP-T1
# [8] = test system: Human immunodeficiency virus 1; assay: Antiviral activity against wild-type HIV1 NL4-3 VSV-G pseudotyped virus infected in human SUP-T1 cells assessed as inhibition of late stage viral production pretreated with viral infected SUP-T1 cells for 48 hrs followed by reinfection in TZM-bl cells by luciferase reporter gene assay; assay type: functional, organism-based; conditions: Human immunodeficiency virus 1, NL4-3, SUP-T1
# [9] = test system: Human immunodeficiency virus 1; assay: Antiviral activity against HIV1 NL4-3 VSV-G pseudotyped virus infected in human SUP-T1 cells assessed as inhibition of late stage viral production at 100 nM pretreated for 48 hrs followed by viral infection and measured after 48 hrs by luciferase assay relative to control; assay type: functional; conditions: Human immunodeficiency virus 1, NL4-3, SUP-T1, time 96 hrs
Compound,selectivity ratio [1],CC50 at 24 h [2] [µM],IC50 [3] [nM],other results
COc1cc(C(=O)N[C@@H](Cc2ccccc2)[C@H](O)CN(CC(C)C)S(=O)(=O)c2ccc([N+](=O)[O-])cc2)cc(OC)c1O,> 127000,> 100,0.79,–
COc1cc(C(=O)N[C@@H](Cc2ccccc2)[C@H](O)CN(CC(C)C)S(=O)(=O)c2ccc(F)cc2)cc(OC)c1O,> 312000,> 100,0.32,inhibition at 10 µM [4]: 84.2%
CC(C)CN(C[C@@H](O)[C@H](Cc1ccccc1)NC(=O)c1ccc(O)cc1O)S(=O)(=O)c1ccc([N+](=O)[O-])cc1,> 41300,> 100,2.42,–
CC(C)CN(C[C@@H](O)[C@H](Cc1ccccc1)NC(=O)c1ccc(Cl)cc1O)S(=O)(=O)c1ccc(C(F)(F)F)cc1,–,–,6.23,–
CC(C)CN(C[C@@H](O)[C@H](Cc1ccccc1)NC(=O)c1cc(O)cc(O)c1)S(=O)(=O)c1ccc(F)cc1,> 4.76e+06,> 100,0.021,EC50 [5]: 610 nM; Ratio EC50 [6]: 0.82; inhibition at 10 µM [7]: 2.6%; EC50 [8]: 740 nM; inhibition at 10 µM [4]: 100%
COc1cc(O)c(C(=O)N[C@@H](Cc2ccccc2)[C@H](O)CN(CC(C)C)S(=O)(=O)c2ccc(F)cc2)cc1OC,–,–,11.5,–
CC(C)CN(C[C@@H](O)[C@H](Cc1ccccc1)NC(=O)c1ccccc1O)S(=O)(=O)c1ccc(F)cc1,> 49000,> 100,2.04,inhibition at 10 µM [4]: 92.6%
COc1cc(C(=O)N[C@@H](Cc2ccccc2)[C@H](O)CN(CC(C)C)S(=O)(=O)c2ccc(C(F)(F)F)cc2)cc(OC)c1O,–,–,8.27,–
CC(C)CN(C[C@@H](O)[C@H](Cc1ccccc1)NC(=O)c1ccc(O)cc1O)S(=O)(=O)c1ccc(C(F)(F)F)cc1,–,–,8.82,–
CC(C)CN(C[C@@H](O)[C@H](Cc1ccccc1)NC(=O)c1cc(O)cc(O)c1)S(=O)(=O)c1ccc([N+](=O)[O-])cc1,1.34e+06,86.9,0.065,–
CC(C)CN(C[C@@H](O)[C@H](Cc1ccccc1)NC(=O)c1ccc(Cl)cc1O)S(=O)(=O)c1ccc(F)cc1,–,–,6.94,inhibition at 10 µM [4]: 97.4%
CC(C)CN(C[C@@H](O)[C@H](Cc1ccccc1)NC(=O)O[C@H]1CO[C@H]2OCC[C@H]21)S(=O)(=O)c1ccc(N)cc1,–,–,–,EC50 [5]: 100 nM; EC50 [8]: 2.5 nM; inhibition at 0.1 µM [9]: 100%
CC(C)CN(C[C@@H](O)[C@H](Cc1ccccc1)NC(=O)c1ccccc1O)S(=O)(=O)c1ccc(C(F)(F)F)cc1,–,–,23,–
COc1ccc(C(=O)N[C@@H](Cc2ccccc2)[C@H](O)CN(CC(C)C)S(=O)(=O)c2ccc([N+](=O)[O-])cc2)c(O)c1,–,–,12.7,–
CC(C)CN(C[C@@H](O)[C@H](Cc1ccccc1)NC(=O)c1ccc(O)c(O)c1)S(=O)(=O)c1ccc(C(F)(F)F)cc1,496000,38.2,0.077,–
COc1cc(O)c(C(=O)N[C@@H](Cc2ccccc2)[C@H](O)CN(CC(C)C)S(=O)(=O)c2ccc([N+](=O)[O-])cc2)cc1OC,–,–,13.7,–
CC(C)CN(C[C@@H](O)[C@H](Cc1ccccc1)NC(=O)c1cc(O)cc(O)c1)S(=O)(=O)c1ccc(C(F)(F)F)cc1,> 1.28e+06,> 100,0.078,–
COc1ccc(C(=O)N[C@@H](Cc2ccccc2)[C@H](O)CN(CC(C)C)S(=O)(=O)c2ccc(C(F)(F)F)cc2)c(O)c1,–,–,16.2,–
CC(C)CN(C[C@@H](O)[C@H](Cc1ccccc1)NC(=O)c1ccc(Cl)cc1O)S(=O)(=O)c1ccc([N+](=O)[O-])cc1,–,–,9.99,–
CC(C)CN(C[C@@H](O)[C@H](Cc1ccccc1)NC(=O)c1cc(O)c(O)c(O)c1)S(=O)(=O)c1ccc(C(F)(F)F)cc1,> 303000,> 100,0.33,–
CC(C)CN(C[C@@H](O)[C@H](Cc1ccccc1)NC(=O)c1ccccc1O)S(=O)(=O)c1ccc([N+](=O)[O-])cc1,–,–,13.3,–
CC(C)CN(C[C@@H](O)[C@H](Cc1ccccc1)NC(=O)c1ccc(O)c(O)c1)S(=O)(=O)c1ccc([N+](=O)[O-])cc1,142000,35.6,0.25,–
CC(C)CN(C[C@@H](O)[C@H](Cc1ccccc1)NC(=O)c1ccc(O)cc1O)S(=O)(=O)c1ccc(F)cc1,> 159000,> 100,0.63,inhibition at 10 µM [4]: 99.4%
COc1cc(O)c(C(=O)N[C@@H](Cc2ccccc2)[C@H](O)CN(CC(C)C)S(=O)(=O)c2ccc(C(F)(F)F)cc2)cc1OC,–,–,11.4,–
CC(C)CN(C[C@@H](O)[C@H](Cc1ccccc1)NC(=O)c1cc(O)c(O)c(O)c1)S(=O)(=O)c1ccc([N+](=O)[O-])cc1,> 137000,> 100,0.73,–
COc1ccc(C(=O)N[C@@H](Cc2ccccc2)[C@H](O)CN(CC(C)C)S(=O)(=O)c2ccc(F)cc2)c(O)c1,–,–,8.34,inhibition at 10 µM [4]: 82.2%
CC(C)CN(C[C@@H](O)[C@H](Cc1ccccc1)NC(=O)c1ccc(O)c(O)c1)S(=O)(=O)c1ccc(F)cc1,768000,57.6,0.075,EC50 [5]: 2180 nM; Ratio EC50 [6]: 6.06; inhibition at 10 µM [7]: 12.5%; EC50 [8]: 360 nM; inhibition at 10 µM [4]: 100%
